Assay [1] concerns IL-2 MALT1-dependent release in Jurkat cells. Briefly: cells. In kind it is cell-based. Particulars: Homo sapiens; for CC50: Jurkat, 24 h, read-out: CC50 (IL-2 MALT1-dependent release inhibition); for EC50: Jurkat cells stimulated with antiCD3/antiCD28 for 24 h, IL-2 ELISA, read-out: EC50, IL-2 MALT1-dependent release inhibition. On the procedure:
Jurkat cells (ATCC, USA) (100,000 cells/well in a 96 well flat-bottom plate (Greiner, #655061) were cultured in RPMI 1640 supplemented with 10% FBS at 37° C., 5% CO2 in a humidified cell culture incubator for 0.5-1 h. Then 10 μl/well 15× compound (or DMSO) was added in duplicates. Cells were incubated with compound in a humidified cell culture incubator for 0.5-1 h. After the incubation, 10 μl/well of 15× human antiCD3 HIT3a antibody (BioLegend) together with 10 μl/well of 15× human antiCD28 antibody (Invitrogen) were added to stimulate Jurkat cells for 24 h. After 24 h of stimulation, supernatants were collected and IL-2 levels in supernatants were assessed using IL-2 ELISA kit (Vector-Best, Russia).

Assay [2] has as its target MALT1 (Homo sapiens (Human), UniProt Q9UDY8). Briefly: MALT1 enzymatic activity inhibition (fluorescence, Ac-LRSR-AMC substrate). Format: biochemical. Particulars: recombinant MALT1 1.5 ng/μl, Ac-LRSR-AMC 1 μM. The method, boiled down:
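Recombinant human MALT1 (1.5 ng/μl final) preincubated 10 min at rt with compounds in 50 mM HEPES pH 7.2-7.4, 100 mM NaCl, 900 mM sodium citrate, 10 mM DTT; 1 μM Ac-LRSR-AMC then added. AMC fluorescence read at start and after 30 min 37 °C plus 30 min rt; difference gives signal, % inhibition fitted to IC50.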

Sequence of MALT1 (Q9UDY8 whole entry): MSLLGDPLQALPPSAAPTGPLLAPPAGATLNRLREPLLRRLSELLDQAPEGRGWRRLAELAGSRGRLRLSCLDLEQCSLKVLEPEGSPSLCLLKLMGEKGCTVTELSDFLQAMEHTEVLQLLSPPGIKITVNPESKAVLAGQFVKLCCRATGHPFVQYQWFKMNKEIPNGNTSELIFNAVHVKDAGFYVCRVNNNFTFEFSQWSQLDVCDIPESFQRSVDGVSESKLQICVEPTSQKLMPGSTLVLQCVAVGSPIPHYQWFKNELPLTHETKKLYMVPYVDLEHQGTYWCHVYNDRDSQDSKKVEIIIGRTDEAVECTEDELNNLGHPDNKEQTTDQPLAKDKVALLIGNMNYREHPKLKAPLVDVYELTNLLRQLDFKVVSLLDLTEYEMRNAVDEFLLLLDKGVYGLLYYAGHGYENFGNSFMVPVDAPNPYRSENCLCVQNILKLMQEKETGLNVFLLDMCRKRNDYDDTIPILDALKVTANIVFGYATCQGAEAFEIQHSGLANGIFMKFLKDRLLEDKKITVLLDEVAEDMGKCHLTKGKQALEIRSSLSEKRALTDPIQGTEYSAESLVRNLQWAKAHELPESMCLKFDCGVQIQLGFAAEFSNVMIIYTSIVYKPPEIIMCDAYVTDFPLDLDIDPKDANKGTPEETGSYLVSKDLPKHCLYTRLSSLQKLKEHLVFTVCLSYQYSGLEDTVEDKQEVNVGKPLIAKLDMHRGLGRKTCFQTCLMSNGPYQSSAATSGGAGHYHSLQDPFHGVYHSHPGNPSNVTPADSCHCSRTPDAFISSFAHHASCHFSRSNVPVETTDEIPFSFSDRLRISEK

On to `CC(C)c1c(NC(=O)Nc2ccc(-c3nnc(CCCCCC(=O)N4CCN(c5ccc6c(c5)CN(C5CCC(=O)NC5=O)C6=O)CC4)o3)nc2)cnc2ccnn12` (stereo not shown) [Compound 110, 1-[6-[5-[6-[4-[2-(2,6-dioxo-3-piperidyl)-1-oxo-isoindolin-5-yl]piperazin-1-yl]-6-oxo-hexyl]-1,3,4-oxadiazol-2-yl]-3-pyridyl]-3-(7-isopropylpyrazolo[1,5-a]pyrimidin-6-yl)urea], for which the CC50 (as a rule, the concentration giving 50% cytotoxicity) in assay [1] is above 5000 nM. In addition, the EC50 (as a rule, the midpoint of the concentration-response curve) in assay [2] lay within 1 to 5 µM.
For the compound `Cc1cc(NC(=O)Nc2cnc3ccnn3c2C2CCCC2)cnc1-c1noc(CC(C)(C)CC(=O)N2CCN(c3ccc4c(c3)CN(C3CCC(=O)NC3=O)C4=O)CC2)n1` (stereo not shown) [Compound 10, 1-(7-cyclopentylpyrazolo[1,5-a]pyrimidin-6-yl)-3-[6-[5-[4-[4-[2-(2,6-dioxo-3-piperidyl)-1-oxo-isoindolin-5-yl]piperazin-1-yl]-2,2-dimethyl-4-oxo-butyl]-1,2,4-oxadiazol-3-yl]-5-methyl-3-pyridyl]urea], the EC50 in assay [1] was 500 to 1000 nM; in assay [2], 0.2 to 0.5 µM.
As to `Cc1cc(NC(=O)Nc2cnc3ccnn3c2C2CCCCC2)cnc1-c1noc(CCCCC(=O)N2CCN(c3ccc4c(c3)CN(C3CCC(=O)NC3=O)C4=O)CC2)n1` (stereo not shown) [Compound 124, 1-(7-cyclohexylpyrazolo[1,5-a]pyrimidin-6-yl)-3-[6-[5-[5-[4-[2-(2,6-dioxo-3-piperidyl)-1-oxo-isoindolin-5-yl]piperazin-1-yl]-5-oxo-pentyl]-1,2,4-oxadiazol-3-yl]-5-methyl-3-pyridyl]urea], the CC50 in assay [1] was in the range of 1000 to 5000 nM. Besides, the EC50 in assay [2] was at most 0.2 µM.
For the compound `Cc1cc(NC(=O)Nc2cnc3ccnn3c2C2CCCC2)cnc1-c1noc(CCCC(=O)N2CCN(c3ccc4c(c3)CN(C3CCC(=O)NC3=O)C4=O)CC2)n1` (stereo not shown) [Compound 12, 1-(7-cyclopentylpyrazolo[1,5-a]pyrimidin-6-yl)-3-[6-[5-[4-[4-[2-(2,6-dioxo-3-piperidyl)-1-oxo-isoindolin-5-yl]piperazin-1-yl]-4-oxo-butyl]-1,2,4-oxadiazol-3-yl]-5-methyl-3-pyridyl]urea], the EC50 in assay [1] is 1000 to 5000 nM; in assay [2], at most 0.2 µM.
The corresponding values for `Cc1cc(NC(=O)Nc2cnc3ccnn3c2C2CCCC2)cnc1N1CCN(c2ccc3c(c2)CN(C2CCC(=O)NC2=O)C3=O)CC1` (stereo not shown) [Compound 54, 1-(7-cyclopentylpyrazolo[1,5-a]pyrimidin-6-yl)-3-[6-[4-[2-(2,6-dioxo-3-piperidyl)-1-oxo-isoindolin-5-yl]piperazin-1-yl]-5-methyl-3-pyridyl]urea] are above 5000 nM and 1 to 5 µM.
In the case of `O=C1CCC(N2Cc3cc(N4CCN(Cc5nc(-c6ncc(NC(=O)Nc7cnc8ccnn8c7C7CCCC7)cc6Cl)no5)CC4)ccc3C2=O)C(=O)N1` (stereo not shown) [Compound 56, 1-[5-chloro-6-[5-[[4-[2-(2,6-dioxo-3-piperidyl)-1-oxo-isoindolin-5-yl]piperazin-1-yl]methyl]-1,2,4-oxadiazol-3-yl]-3-pyridyl]-3-(7-cyclopentylpyrazolo[1,5-a]pyrimidin-6-yl)urea], the values for the EC50 in assay [1] and in assay [2] were below 500 nM and at most 0.2 µM, respectively.
For the compound `Cc1cc(NC(=O)Nc2cnc3ccnn3c2C(C)C)cnc1-c1noc(CCCC(=O)N2CCN(c3ccc4c(c3)CN(C3CCC(=O)NC3=O)C4=O)CC2)n1` (stereo not shown) [Compound 89, 1-[6-[5-[4-[4-[2-(2,6-dioxo-3-piperidyl)-1-oxo-isoindolin-5-yl]piperazin-1-yl]-4-oxo-butyl]-1,2,4-oxadiazol-3-yl]-5-methyl-3-pyridyl]-3-(7-isopropylpyrazolo[1,5-a]pyrimidin-6-yl)urea], the EC50 in assay [1] is below 500 nM; in assay [2], at most 0.2 µM.
Regarding `Cc1cc(NC(=O)Nc2cnc3ccnn3c2C(C)C)cnc1-c1noc(CCCCCC(=O)N2CCN(c3ccc4c(c3)CN(C3CCC(=O)NC3=O)C4=O)CC2)n1` (stereo not shown) [Compound 91, 1-[6-[5-[6-[4-[2-(2,6-dioxo-3-piperidyl)-1-oxo-isoindolin-5-yl]piperazin-1-yl]-6-oxo-hexyl]-1,2,4-oxadiazol-3-yl]-5-methyl-3-pyridyl]-3-(7-isopropylpyrazolo[1,5-a]pyrimidin-6-yl)urea], the EC50 is 500 to 1000 nM in assay [1] and at most 0.2 µM in assay [2].
On to `Cc1cc(NC(=O)Nc2cnc3ccnn3c2C(C)C)cnc1-c1noc(CCCCC(=O)N2CCN(c3ccc4c(c3)CN(C3CCC(=O)NC3=O)C4=O)CC2)n1` (stereo not shown) [Compound 86, 1-[6-[5-[5-[4-[2-(2,6-dioxo-3-piperidyl)-1-oxo-isoindolin-5-yl]piperazin-1-yl]-5-oxo-pentyl]-1,2,4-oxadiazol-3-yl]-5-methyl-3-pyridyl]-3-(7-isopropylpyrazolo[1,5-a]pyrimidin-6-yl)urea], for which the results for the EC50 in assay [1] and in assay [2] were 1000 to 5000 nM and at most 0.2 µM, respectively.
As to `O=C1CCC(N2Cc3cc(N4CCN(C(=O)CCCCc5nc(-c6ncc(NC(=O)Nc7cnc8ccnn8c7C7CCCC7)cc6Cl)no5)CC4)ccc3C2=O)C(=O)N1` (stereo not shown) [Compound 76, 1-[5-chloro-6-[5-[5-[4-[2-(2,6-dioxo-3-piperidyl)-1-oxo-isoindolin-5-yl]piperazin-1-yl]-5-oxo-pentyl]-1,2,4-oxadiazol-3-yl]-3-pyridyl]-3-(7-cyclopentylpyrazolo[1,5-a]pyrimidin-6-yl)urea], the results for the EC50 in assay [1] and in assay [2] were 500 to 1000 nM and at most 0.2 µM, respectively.
For the compound `O=C1CCC(N2Cc3cc(N4CCN(C(=O)CCCCCc5nc(-c6ncc(NC(=O)Nc7cnc8ccnn8c7C7CCCCC7)cc6Cl)no5)CC4)ccc3C2=O)C(=O)N1` (stereo not shown) [Compound 118, 1-[5-chloro-6-[5-[6-[4-[2-(2,6-dioxo-3-piperidyl)-1-oxo-isoindolin-5-yl]piperazin-1-yl]-6-oxo-hexyl]-1,2,4-oxadiazol-3-yl]-3-pyridyl]-3-(7-cyclohexylpyrazolo[1,5-a]pyrimidin-6-yl)urea], in assay [1], the CC50 was below 500 nM. The EC50 in assay [2] was at most 0.2 µM.
For the compound `O=C(CCOCCOCCN1CCN(c2ccc3c(c2)CN(C2CCC(=O)NC2=O)C3=O)CC1)NCCOc1ncc(Cl)cc1NC(=O)Nc1cnc2ccnn2c1C1CCCC1` (stereo not shown) [Compound 38, N-[2-[[5-chloro-3-[(7-cyclopentylpyrazolo[1,5-a]pyrimidin-6-yl)carbamoylamino]-2-pyridyl]oxy]ethyl]-3-[2-[2-[4-[2-(2,6-dioxo-3-piperidyl)-1-oxo-isoindolin-5-yl]piperazin-1-yl]ethoxy]ethoxy]propanamide], the EC50 in assay [1] was in the range of 1000 to 5000 nM; in assay [2], 0.2 to 0.5 µM.
`Cc1cc(NC(=O)Nc2cnc3ccnn3c2C2CCCCC2)cnc1-c1noc(CCCC(=O)Nc2ccc3c(c2)CN(C2CCC(=O)NC2=O)C3=O)n1` (stereo not shown) [Compound 123, 4-[3-[5-[(7-cyclohexylpyrazolo[1,5-a]pyrimidin-6-yl)carbamoylamino]-3-methyl-2-pyridyl]-1,2,4-oxadiazol-5-yl]-N-[2-(2,6-dioxo-3-piperidyl)-1-oxo-isoindolin-5-yl]butanamide]: the CC50 in assay [1] was below 500 nM. Besides, the EC50 in assay [2] was at most 0.2 µM.
For the compound `CC(C)c1c(NC(=O)Nc2cnc(-c3noc(CCCCCCN4CCN(c5ccc6c(c5)CN(C5CCC(=O)NC5=O)C6=O)CC4)n3)c(Cl)c2)cnc2ccnn12` (stereo not shown) [Compound 93, 1-[5-chloro-6-[5-[6-[4-[2-(2,6-dioxo-3-piperidyl)-1-oxo-isoindolin-5-yl]piperazin-1-yl]hexyl]-1,2,4-oxadiazol-3-yl]-3-pyridyl]-3-(7-isopropylpyrazolo[1,5-a]pyrimidin-6-yl)urea], the values for the EC50 in assay [1] and in assay [2] were below 500 nM and at most 0.2 µM, respectively.

Values taken from patent US20250163066A1, “PROTACs of MALT1” (TEGID THERAPEUTICS, INC., priority 2022, published 2025).
